Read-outs that look alike come from different tables or passages of the source.
What was measured:
[1] = test system: D. russelii venom proteases (SVMP); assay: Proteolytic activity of venom and its inhibition; type: biochemical, Daboia russelii; settings: for IC50: read-out: IC50 (inhibition of venom proteolytic activity)
human fibrinogen = assay: Fibrinogenolytic activity of venom and its inhibition; type: biochemical
[2] = test system: D. russelii venom-induced lethality; assay: Preclinical efficacy: preincubation model of envenoming; type: in vivo, mice; settings: for Percentage of survival: i.v., 24 h, n=5
[3] = test system: murine C2C12 skeletal muscle myoblast cells; type: cell-based; settings: for cytotoxicity of the inhibitor alone: 100 μM, C2C12 cells, no venom; for reduction of venom-induced cytotoxicity: GA, KL and MP venoms, SMI 0–100 μM
[4] = test system: human platelet-poor plasma, intrinsic pathway (aPTT); assay: Coagulation assay: activated partial thromboplastin time; type: biochemical
[5] = test system: human platelet-poor plasma, extrinsic pathway (PT); assay: Coagulation assay: prothrombin time; type: biochemical
[6] = test system: D. russelii venom-induced lethality; assay: Preclinical efficacy: rescue experiments; type: in vivo, mice; settings: 24 h, n=5
[7] = KA venom 2.5x LD50 preincubated with SMI 60 µg/mouse
[8] = PB venom 2.5x LD50 preincubated with SMI 60 µg/mouse
[9] = PB venom 2.5x LD50 preincubated with SMI 120 µg/mouse
[10] = RJ venom 2.5x LD50 preincubated with SMI 60 µg/mouse
[11] = RJ venom, SMI 120 µg/mouse, venom alone mean 3 min
[12] = TN venom 2.5x LD50 preincubated with SMI 60 µg/mouse
[13] = WB venom 2.5x LD50 preincubated with SMI 60 µg/mouse
[14] = TN, WB and RJ venoms, SMI 0–100 μM (each)
[15] = KA and RJ venoms, SMI up to 100 µM (each)
[16] = TN, KL, GA and MH venoms, SMI 0–100 µM, concentration-dependent
[17] = MP venom 2.5x LD50 i.p., SMI 120 µg/mouse (each) i.v. at 0 min

**Q.** CNC(=O)[C@@H](NC(=O)[C@H](CC(C)C)[C@H](O)C(=O)NO)C(C)(C)C [marimastat, Marimastat] was tested. Which IC50 ([1]; GA (Goa) venom) did it give?
**A.** 2330 nM

**Q.** What about the IC50 ([1]; MP venom) of the same compound?
**A.** 1510 nM

**Q.** And the IC50 ([1]; RJ (Rajasthan) venom)?
**A.** 1670 nM

**Q.** And the “protection against venom-induced fibrinogenolysis” value (human fibrinogen; PB, KA, KL, AP, GA and RJ venoms, SMI 100 µM)?
**A.** very effective

**Q.** And the “protection against venom-induced fibrinogenolysis” value (human fibrinogen; TN, MH, MP and WB venoms, SMI 100 µM (each))?
**A.** did not completely neutralise

**Q.** What about the Percentage of survival [2, 7] of the same compound?
**A.** sufficient to neutralise the lethal effects

**Q.** And the Percentage of survival [2, 8]?
**A.** failed to protect

**Q.** And the Percentage of survival [2, 9]?
**A.** complete protection

**Q.** What about the Percentage of survival [2, 10] of the same compound?
**A.** failed to protect

**Q.** And the “extension of survival time over venom alone” value ([2]; RJ venom, SMI 120 µg/mouse)?
**A.** 12 x

**Q.** And the “mean survival time of mice (onset of lethality)” value [2, 11]?
**A.** 36 min

**Q.** What about the Percentage of survival [2, 12] of the same compound?
**A.** failed to protect

**Q.** And the Percentage of survival ([2]; TN venom 2.5x LD50 preincubated with SMI 120 µg/mouse)?
**A.** complete protection

**Q.** And the Percentage of survival [2, 13]?
**A.** failed to protect

**Q.** What about the “cytotoxicity of the inhibitor alone” value [3] of the same compound?
**A.** Neither inhibitor exhibited cytotoxicity

**Q.** And the “inhibition of venom-induced cytotoxicity” value ([3]; AP venom 50 µg/ml, SMI 0–100 µM)?
**A.** 94.89%

**Q.** And the “reduction of venom-induced cytotoxicity” value [3]?
**A.** 72.88–94.85%

**Q.** And the “inhibition of venom-induced cytotoxicity” value [3, 14]?
**A.** 41.20–70.51%

**Q.** And the “inhibition of venom-induced aPTT alterations” value ([4]; AP and MP venoms, SMI 0–100 µM)?
**A.** capable of inhibiting

**Q.** And the “inhibition of venom-induced aPTT alterations” value [4, 15]?
**A.** ineffective

**Q.** What about the “inhibition of venom-induced aPTT alterations” value ([4]; PB and WB venoms, SMI up to 100 µM (each)) of the same compound?
**A.** failed to inhibit

**Q.** What about the “reversal of venom-induced aPTT alterations” value [4, 16] of the same compound?
**A.** reversed

**Q.** What about the “inhibition of venom-induced PT alterations” value [5, 15] of the same compound?
**A.** ineffective

**Q.** And the “inhibition of venom-induced PT alterations” value ([5]; MP and AP venoms, SMI up to 100 µM (each))?
**A.** failed to inhibit

**Q.** And the “inhibition of venom-induced PT alterations” value ([5]; PB and WB venoms, SMI 0–100 µM)?
**A.** capable of inhibiting

**Q.** And the “reversal of venom-induced PT alterations” value [5, 16]?
**A.** reversed

**Q.** And the “% of survival” value ([6]; KA venom 2.5x LD50 i.p., SMI 120 µg/mouse i.v. at 0 min)?
**A.** 40%

**Q.** And the “% of survival” value [6, 17]?
**A.** 40%

**Q.** And the “% of survival” value ([6]; PB venom 2.5x LD50 i.p., SMI 120 µg/mouse i.v. at 0 min)?
**A.** ineffective

**Q.** Which results are given for N=C(N)c1ccc2cc(OC(=O)c3ccc(N=C(N)N)cc3)ccc2c1 [nafamostat, Nafamostat]?
**A.** inhibition of the protease activity of D. russelii venom ([1]; AP venom (Fig. S1), 0–100 µM): failed to inhibit; extension of survival time over venom alone ([2]; RJ venom, SMI 120 µg/mouse): 160 x; mean survival time of mice (onset of lethality) [2, 11]: 480 min

**Q.** How did the Percentage of survival ([2]; AP venom 2.5x LD50 preincubated 30 min with SMI 60 µg/mouse) turn out when CCc1c(C(=O)C(N)=O)c2c(OCC(=O)O)cccc2n1Cc1ccccc1 [varespladib, Varespladib] was run?
**A.** failed to protect

**Q.** And the Percentage of survival ([2]; AP venom 2.5x LD50 preincubated with SMI 120 µg/mouse)?
**A.** failing to prevent lethality

**Q.** What about the “extension of survival time over venom alone” value ([2]; KA and AP venoms (both), SMI 120 µg/mouse) of the same compound?
**A.** 13 x

**Q.** What about the “mean survival time of mice” value ([2]; KA and AP venoms (both), SMI 120 µg/mouse, venom alone mean 3 min) of the same compound?
**A.** 39 min

**Q.** What about the Percentage of survival [2, 7] of the same compound?
**A.** failed to protect

**Q.** What about the Percentage of survival ([2]; KA venom 2.5x LD50 preincubated with SMI 120 µg/mouse) of the same compound?
**A.** failing to prevent lethality

**Q.** And the Percentage of survival [2, 8]?
**A.** failed to protect

**Q.** And the Percentage of survival ([2]; PB venom 2.5x LD50 preincubated with SMI 90 µg/mouse)?
**A.** 80%

**Q.** What about the Percentage of survival [2, 9] of the same compound?
**A.** complete protection

**Q.** And the Percentage of survival [2, 10]?
**A.** 40%

**Q.** And the Percentage of survival ([2]; RJ venom 2.5x LD50 preincubated with SMI 90 µg/mouse)?
**A.** 60%

**Q.** And the Percentage of survival [2, 12]?
**A.** failed to protect

**Q.** What about the Percentage of survival ([2]; TN venom 2.5x LD50 preincubated with SMI 90 µg/mouse) of the same compound?
**A.** completely protected

**Q.** What about the Percentage of survival [2, 13] of the same compound?
**A.** 40%

**Q.** And the “cytotoxicity of the inhibitor alone” value [3]?
**A.** Neither inhibitor exhibited cytotoxicity

**Q.** What about the “reduction of venom-induced cytotoxicity” value [3] of the same compound?
**A.** 72.88–94.85%

**Q.** What about the “inhibition of venom-induced cytotoxicity” value ([3]; MH venom 50 µg/ml, SMI 0–100 µM) of the same compound?
**A.** 88.67%

**Q.** And the “inhibition of venom-induced cytotoxicity” value ([3]; PB venom 50 µg/ml, SMI 0–100 µM)?
**A.** 85.32%

**Q.** What about the “inhibition of venom-induced cytotoxicity” value [3, 14] of the same compound?
**A.** 41.20–70.51%

**Q.** What about the “inhibition of venom-induced aPTT alterations” value ([4]; TN venom, 100 µM) of the same compound?
**A.** failed to prevent coagulopathy

**Q.** What about the “inhibition of venom-induced PT alterations” value ([5]; TN venom, 100 µM) of the same compound?
**A.** failed to prevent coagulopathy

**Q.** What about the “% of survival” value [6, 17] of the same compound?
**A.** 60%

**Q.** And the “% of survival” value ([6]; PB venom 2.5x LD50 i.p., SMI 120 µg/mouse i.v. at 30 min)?
**A.** complete protection

Reference: PMC12152178 (Communications Medicine, 2025)
